Results reported in patent US9539260B2, “Dihydro-benzo-oxazine and dihydro-pyrido-oxazine derivatives” (Novartis AG, priority 2012, dated 2017).

Tests used:
[1] = biological target: PI3K alpha (Homo sapiens (Human), UniProt P42336); assay: Enzymatic PI3K alpha isoform inhibition (lipid kinase activity, Kinase-Glo luminescence); format: biochemical; conditions: Enzymatic assay
Method in brief: (§1)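 ATP-depletion format: 10 nM PI3K with 5 μg/mL phosphatidylinositol and 2 μM ATP, run to ~50% ATP consumption, then Kinase-Glo added and remaining ATP read by luminescence after 5 min. IC50 from 4-parameter logistic fit, typically over 8 concentrations 10–0.003 μM.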

[2] = biological target: PI3K delta (Homo sapiens (Human), UniProt O00329); assay: Enzymatic PI3K delta isoform inhibition (lipid kinase activity, Kinase-Glo luminescence); format: biochemical; conditions: Enzymatic assay
PI3K delta, sequence (O00329 other isoform, or with tags, fused parts or gaps linker GGGGGG): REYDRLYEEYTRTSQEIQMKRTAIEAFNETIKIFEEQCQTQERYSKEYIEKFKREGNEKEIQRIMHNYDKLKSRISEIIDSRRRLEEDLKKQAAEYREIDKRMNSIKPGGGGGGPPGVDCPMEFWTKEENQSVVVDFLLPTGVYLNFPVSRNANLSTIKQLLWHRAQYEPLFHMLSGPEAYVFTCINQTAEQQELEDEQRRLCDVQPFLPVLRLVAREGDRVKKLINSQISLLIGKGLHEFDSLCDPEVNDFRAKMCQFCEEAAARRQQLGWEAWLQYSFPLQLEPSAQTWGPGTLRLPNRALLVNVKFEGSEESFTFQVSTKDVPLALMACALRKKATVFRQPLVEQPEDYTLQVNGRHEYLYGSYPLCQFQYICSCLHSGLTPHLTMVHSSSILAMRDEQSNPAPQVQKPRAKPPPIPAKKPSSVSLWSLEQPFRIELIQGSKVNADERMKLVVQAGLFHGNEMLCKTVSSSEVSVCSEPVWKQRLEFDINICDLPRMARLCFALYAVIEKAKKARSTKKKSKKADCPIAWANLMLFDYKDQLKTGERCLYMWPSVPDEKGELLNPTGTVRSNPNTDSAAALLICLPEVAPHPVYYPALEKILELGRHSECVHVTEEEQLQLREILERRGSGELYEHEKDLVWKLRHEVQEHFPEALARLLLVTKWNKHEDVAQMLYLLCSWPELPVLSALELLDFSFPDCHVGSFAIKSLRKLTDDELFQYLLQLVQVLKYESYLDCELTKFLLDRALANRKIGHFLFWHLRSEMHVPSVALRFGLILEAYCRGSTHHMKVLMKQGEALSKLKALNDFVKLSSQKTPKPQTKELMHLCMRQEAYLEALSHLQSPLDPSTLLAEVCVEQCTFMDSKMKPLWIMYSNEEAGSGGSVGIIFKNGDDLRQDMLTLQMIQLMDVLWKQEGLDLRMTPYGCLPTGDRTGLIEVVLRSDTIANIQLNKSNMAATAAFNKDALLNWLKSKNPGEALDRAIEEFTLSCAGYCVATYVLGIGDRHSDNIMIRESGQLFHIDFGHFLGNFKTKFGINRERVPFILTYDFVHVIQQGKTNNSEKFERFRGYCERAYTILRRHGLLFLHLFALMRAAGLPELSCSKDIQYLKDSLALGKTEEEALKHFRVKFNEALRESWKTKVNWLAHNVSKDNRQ
Method in brief: as §1

PI3K alpha, sequence (P42336 other isoform, or with tags, fused parts or gaps): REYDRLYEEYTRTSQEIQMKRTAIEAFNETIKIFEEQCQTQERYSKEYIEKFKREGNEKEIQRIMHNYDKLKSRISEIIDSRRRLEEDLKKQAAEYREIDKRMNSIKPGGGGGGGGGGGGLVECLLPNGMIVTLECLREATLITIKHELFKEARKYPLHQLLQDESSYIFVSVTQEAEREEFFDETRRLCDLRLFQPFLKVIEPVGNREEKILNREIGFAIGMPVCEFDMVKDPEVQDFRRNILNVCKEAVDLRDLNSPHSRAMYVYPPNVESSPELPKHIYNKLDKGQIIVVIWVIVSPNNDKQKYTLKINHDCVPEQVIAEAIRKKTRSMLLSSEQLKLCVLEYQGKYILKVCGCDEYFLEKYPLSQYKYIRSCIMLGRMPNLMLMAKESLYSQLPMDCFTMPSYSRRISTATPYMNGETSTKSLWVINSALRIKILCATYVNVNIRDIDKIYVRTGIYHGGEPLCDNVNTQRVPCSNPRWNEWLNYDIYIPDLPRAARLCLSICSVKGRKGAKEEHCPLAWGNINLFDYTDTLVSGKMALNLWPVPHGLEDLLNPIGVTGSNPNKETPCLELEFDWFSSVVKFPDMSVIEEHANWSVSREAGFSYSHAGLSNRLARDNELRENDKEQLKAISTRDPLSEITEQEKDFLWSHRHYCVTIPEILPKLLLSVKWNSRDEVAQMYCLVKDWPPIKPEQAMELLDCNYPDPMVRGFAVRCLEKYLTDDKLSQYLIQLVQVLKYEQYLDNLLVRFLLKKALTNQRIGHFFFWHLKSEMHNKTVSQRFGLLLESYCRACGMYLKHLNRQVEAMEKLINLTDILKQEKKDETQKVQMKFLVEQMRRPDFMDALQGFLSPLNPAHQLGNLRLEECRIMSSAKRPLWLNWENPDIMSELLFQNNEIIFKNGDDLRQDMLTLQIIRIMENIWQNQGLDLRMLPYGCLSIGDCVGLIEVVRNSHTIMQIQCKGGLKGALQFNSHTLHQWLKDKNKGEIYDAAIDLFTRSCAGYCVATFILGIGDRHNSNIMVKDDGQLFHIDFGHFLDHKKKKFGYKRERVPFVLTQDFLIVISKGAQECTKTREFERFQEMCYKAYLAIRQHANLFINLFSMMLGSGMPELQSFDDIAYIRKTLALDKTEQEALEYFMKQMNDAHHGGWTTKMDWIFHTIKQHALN

Structure (SMILES) | IC50 [1] | IC50 [2]
COCC(=O)N1CC[C@H](Oc2ccc3c(c2)N(c2cnc(OC)c(OC)c2)CCO3)C1 [Example B44, 1-{(S)-3-[4-(5,6-Dimethoxy-pyridin-3-yl)-3,4-dihydro-2H-benzo[1,4]oxazin-6-yloxy]-pyrrolidin-1-yl}-2-methoxy-ethanone] | 0.071 µM | 0.022 µM
COc1ncc(N2CCOc3ccc(O[C@H]4CCN(C(=O)C5CCS(=O)(=O)CC5)C4)cc32)cc1C [Example B93, (1,1-Dioxo-hexahydro-1lambda*6*-thiopyran-4-yl)-{(S)-3-[4-(6-methoxy-5-methyl-pyridin-3-yl)-3,4-dihydro-2H-benzo[1,4]oxazin-6-yloxy]-pyrrolidin-1-yl}-methanone] | 0.525 µM | 0.004 µM
Cc1cc(N2CCOc3ccc(O[C@H]4CCN(C(=O)C5CCOCC5)C4)cc32)cnc1OC(F)F [Example B72, {(S)-3-[4-(6-Difluoromethoxy-5-methyl-pyridin-3-yl)-3,4-dihydro-2H-benzo[1,4]oxazin-6-yloxy]-pyrrolidin-1-yl}-(tetrahydro-pyran-4-yl)-methanone] | 2.06 µM | 0.032 µM
COc1ncc(N2c3cc(O[C@H]4CCN(C(=O)C5CCOCC5)C4)ccc3OCC2C)cc1C#N (stereo partly drawn) [Example C5, 2-Methoxy-5-{3-methyl-6-[(S)-1-(tetrahydro-pyran-4-carbonyl)-pyrrolidin-3-yloxy]-2,3-dihydro-benzo[1,4]oxazin-4-yl}-nicotinonitrile] | 5.51 µM | 0.095 µM
Cc1cc(N2CCOc3ccc(O[C@H]4CCN(C(=O)C(C)C)C4)cc32)cnc1S(C)(=O)=O [Example B33, 1-{(S)-3-[4-(6-Methanesulfonyl-5-methyl-pyridin-3-yl)-3,4-dihydro-2H-benzo[1,4]oxazin-6-yloxy]-pyrrolidin-1-yl}-2-methyl-propan-1-one] | 0.61 µM | < 0.009 µM
COc1ncc(N2CCOc3ccc(O[C@H]4CCN(C(=O)c5oc(C)nc5C)C4)cc32)cc1C#N [Example C20, 5-{6-[(S)-1-(2,4-Dimethyl-oxazole-5-carbonyl)-pyrrolidin-3-yloxy]-2,3-dihydro-benzo[1,4]oxazin-4-yl}-2-methoxy-nicotinonitrile] | 0.193 µM | 0.006 µM
Cc1cc(N2CCOc3ccc(O[C@H]4CCN(C(=O)Cc5ccncc5)C4)cc32)cnc1S(C)(=O)=O [Example B68, 1-{(S)-3-[4-(6-Methanesulfonyl-5-methyl-pyridin-3-yl)-3,4-dihydro-2H-benzo[1,4]oxazin-6-yloxy]-pyrrolidin-1-yl}-2-pyridin-4-yl-ethanone] | 0.84 µM | 0.039 µM
Cc1cnccc1C(=O)N1CC[C@H](Oc2ccc3c(c2)N(c2cnc(S(C)(=O)=O)c(C)c2)CCO3)C1 [Example B67, {(S)-3-[4-(6-Methanesulfonyl-5-methyl-pyridin-3-yl)-3,4-dihydro-2H-benzo[1,4]oxazin-6-yloxy]-pyrrolidin-1-yl}-(3-methyl-pyridin-4-yl)-methanone] | 0.804 µM | 0.025 µM
CS(=O)(=O)c1ncc(N2CCOc3ccc(O[C@H]4CCN(C(=O)C5CCOCC5)C4)cc32)cc1CF [Example B71, {(S)-3-[4-(5-Fluoromethyl-6-methanesulfonyl-pyridin-3-yl)-3,4-dihydro-2H-benzo[1,4]oxazin-6-yloxy]-pyrrolidin-1-yl}-(tetrahydro-pyran-4-yl)-methanone] | 0.36 µM | 0.0055 µM
CS(=O)(=O)c1ccc(N2CCOc3ccc(O[C@H]4CCN(C(=O)C5CCOCC5)C4)cc32)cn1 [Example A43, {(S)-3-[4-(6-Methanesulfonyl-pyridin-3-yl)-3,4-dihydro-2H-benzo[1,4]oxazin-6-yloxy]-pyrrolidin-1-yl}-(tetrahydro-pyran-4-yl)-methanone] | 4.69 µM | 0.054 µM
COc1cc(N2CCOc3ccc(O[C@H]4CCN(C(=O)C5CCS(=O)(=O)C5)C4)cc32)cnc1OC (single isomer, unassigned) [Example H10] | 0.727 µM | 0.018 µM
Cc1cc(N2CCOc3ccc(O[C@H]4CCN(C(=O)C5COCCO5)C4)cc32)cnc1S(C)(=O)=O (single isomer, unassigned) [Example H4] | 0.848 µM | 0.011 µM
CCC(=O)N1CC[C@H](Oc2ccc3c(c2)N(c2ccc(S(=O)(=O)CC)nc2)CCO3)C1 [Example B96, 1-{(S)-3-[4-(6-Ethanesulfonyl-pyridin-3-yl)-3,4-dihydro-2H-benzo[1,4]oxazin-6-yloxy]-pyrrolidin-1-yl}-propan-1-one] | > 9.1 µM | 0.118 µM
COc1cc(N2CCOc3ccc(O[C@H]4CCN(C(=O)[C@H]5CC[C@H](O)CC5)C4)cc32)cnc1OC [Example B66, {(S)-3-[4-(5,6-Dimethoxy-pyridin-3-yl)-3,4-dihydro-2H-benzo[1,4]oxazin-6-yloxy]-pyrrolidin-1-yl}-(4-hydroxy-cyclohexyl)-methanone] | 0.446 µM | 0.011 µM
CCC(=O)N1CC[C@H](Oc2ccc3c(c2)N(c2cncc(S(=O)(=O)N(C)C)c2)CCO3)C1 [Example A39, 5-[6-((S)-1-Propionyl-pyrrolidin-3-yloxy)-2,3-dihydro-benzo[1,4]oxazin-4-yl]-pyridine-3-sulfonic acid dimethylamide] | 0.071 µM | 0.009 µM
COc1cc(N2CCOc3ccc(O[C@H]4CCN(C(=O)C5COCCO5)C4)cc32)cnc1OC (stereo partly drawn) [Example B39, {(S)-3-[4-(5,6-Dimethoxy-pyridin-3-yl)-3,4-dihydro-2H-benzo[1,4]oxazin-6-yloxy]-pyrrolidin-1-yl}-[1,4]dioxan-2-yl-methanone] | 0.176 µM | 0.011 µM
COc1ncc(N2CCOc3cnc(O[C@H]4CCN(C(=O)C5CCS(=O)(=O)CC5)C4)cc32)cc1C#N [Example F13, 5-{7-[(S)-1-(1,1-Dioxo-hexahydro-1lambda*6*-thiopyran-4-carbonyl)-pyrrolidin-3-yloxy]-2,3-dihydro-pyrido[3,4-b][1,4]oxazin-1-yl}-2-methoxy-nicotinonitrile] | 0.704 µM | 0.024 µM
CC[S+]([O-])c1ccc(N2CCOc3ccc(O[C@H]4CCN(C(=O)C5CCOCC5)C4)cc32)cn1 (stereo partly drawn) [Example B7, {(S)-3-[4-(6-Ethanesulfinyl-pyridin-3-yl)-3,4-dihydro-2H-benzo[1,4]oxazin-6-yloxy]-pyrrolidin-1-yl}-(tetrahydro-pyran-4-yl)-methanone] | 3.54 µM | 0.114 µM
COc1ncc(N2CCOc3ccc(O[C@H]4CCN(C(=O)c5cccnc5)C4)cc32)cc1C#N [Example C16, 2-Methoxy-5-{6-[(S)-1-(pyridine-3-carbonyl)-pyrrolidin-3-yloxy]-2,3-dihydro-benzo[1,4]oxazin-4-yl}-nicotinonitrile] | 0.478 µM | 0.015 µM
COc1ncc(N2CCOc3cnc(O[C@H]4CCN(C(=O)C5CCS(=O)(=O)CC5)C4)cc32)cc1F [Example F2, (1,1-Dioxo-hexahydro-1lambda*6*-thiopyran-4-yl)-{(S)-3-[1-(5-fluoro-6-methoxy-pyridin-3-yl)-2,3-dihydro-1H-pyrido[3,4-b][1,4]oxazin-7-yloxy]-pyrrolidin-1-yl}-methanone] | 0.725 µM | 0.005 µM
COc1ncc(N2C[C@H](C)Oc3ccc(O[C@H]4CCN(C(=O)C5CCOCC5)C4)cc32)cc1C#N (single isomer, unassigned) [Example O2] | 5.69 µM | 0.049 µM
Cc1cc(N2CCOc3ccc(O[C@H]4CCN(C(=O)c5ccccc5)C4)cc32)cnc1S(C)(=O)=O [Example B34, {(S)-3-[4-(6-Methanesulfonyl-5-methyl-pyridin-3-yl)-3,4-dihydro-2H-benzo[1,4]oxazin-6-yloxy]-pyrrolidin-1-yl}-phenyl-methanone] | 0.795 µM | 0.046 µM
CCC(=O)N1CC[C@H](Oc2ccc3c(c2)N(c2cncc(C(F)(F)F)c2)CCO3)C1 [Example A38, 1-{(S)-3-[4-(5-Trifluoromethyl-pyridin-3-yl)-3,4-dihydro-2H-benzo[1,4]oxazin-6-yloxy]-pyrrolidin-1-yl}-propan-1-one] | 0.343 µM | 0.064 µM
COc1cc(N2CCOc3ccc(O[C@H]4CCN(C(=O)C5CCOCC5)C4)cc32)cnc1S(C)(=O)=O [Example B9, {(S)-3-[4-(6-Methanesulfonyl-5-methoxy-pyridin-3-yl)-3,4-dihydro-2H-benzo[1,4]oxazin-6-yloxy]-pyrrolidin-1-yl}-(tetrahydro-pyran-4-yl)-methanone] | 1.77 µM | 0.078 µM
COc1ncc(N2CCOc3cnc(OC4CCN(C(=O)C5CCS(=O)(=O)CC5)C4)cc32)cc1C (centres unmarked) [Example F12, (1,1-Dioxo-hexahydro-1lambda*6*-thiopyran-4-yl)-{3-[1-(6-methoxy-5-methyl-pyridin-3-yl)-2,3-dihydro-1H-pyrido[3,4-b][1,4]oxazin-7-yloxy]-pyrrolidin-1-yl}-methanone] | 0.44 µM | < 0.003 µM
COc1ncc(N2CCOc3ccc(O[C@H]4CCN(C(=O)[C@@H]5CCN(C)C5)C4)cc32)cc1C#N [L, 2-Methoxy-5-{6-[(S)-1-((R)-1-methyl-pyrrolidine-3-carbonyl)-pyrrolidin-3-yloxy]-2,3-dihydro-benzo[1,4]oxazin-4-yl}-nicotinonitrile] | 0.538 µM | 0.013 µM
CN(C)S(=O)(=O)c1cncc(N2CCOc3ccc(O[C@H]4CCN(C(=O)C5CCOCC5)C4)cc32)c1 [Example A2, 5-{6-[(S)-1-(Tetrahydro-pyran-4-carbonyl)-pyrrolidin-3-yloxy]-2,3-dihydro-benzo[1,4]oxazin-4-yl}-pyridine-3-sulfonic acid dimethylamide] | 0.047 µM | 0.006 µM
CCC(=O)N1CC[C@H](Oc2ccc3c(c2)N(c2ccc(S(C)(=O)=O)nc2)CCO3)C1 [Example A8, 1-{(S)-3-[4-(6-Methanesulfonyl-pyridin-3-yl)-3,4-dihydro-2H-benzo[1,4]oxazin-6-yloxy]-pyrrolidin-1-yl}-propan-1-one] | 5.93 µM | 0.04 µM
